In patent US9161993B2, “Charge triggering of self-organized nanoparticles” (Danmarks Tekniske Universitet, priority 2011, dated 2015):

Target: Thermolysin (Bacillus thermoproteolyticus, UniProt P00800)
Conditions: liposomes exposing RJ111; linker Trp-Ile-Pro-Val-Ser-Leu-Arg-Ser-Gly
Description: The size and ζ-potential (zeta potential) of RJ111 formulated liposomes were measured before and after enzymatic cleavage of the RJ111 peptide linker using Thermolysin as a model enzyme. RJ111 formulated liposomes were mixed with a buffered solution of Thermolysine yielding final concentrations of: 2.2 mM lipid (220 μM RJ111), 220 μg/ml Thermolysine, 1 uM, ZnCl2 0.5 mM CaCl2, 30 mM HEPES and 125 mM NaCl. The reaction mixtures containing Thermolysine and RJ111 formulated in liposomes were heated to 37° C. for a period of 12 hours and the size and ζ-potential were subsequently measured in an equi-osmolar solution of 300 mM Glucose, 10 mM HEPES (pH 7.4) and 1 mM CaCl2. The ζ-potential and size of the non-cleaved RJ111 formulations were measured (ZetaPALS, Brookhaven Instruments Corp., Holtsville, N.Y., USA) in an equi-osmolar solution of 300 mM Glucose, 10 mM HEPES (pH 7.4) and 1 mM CaCl2.

Chain of Thermolysin (P00800 233-548, species assumed): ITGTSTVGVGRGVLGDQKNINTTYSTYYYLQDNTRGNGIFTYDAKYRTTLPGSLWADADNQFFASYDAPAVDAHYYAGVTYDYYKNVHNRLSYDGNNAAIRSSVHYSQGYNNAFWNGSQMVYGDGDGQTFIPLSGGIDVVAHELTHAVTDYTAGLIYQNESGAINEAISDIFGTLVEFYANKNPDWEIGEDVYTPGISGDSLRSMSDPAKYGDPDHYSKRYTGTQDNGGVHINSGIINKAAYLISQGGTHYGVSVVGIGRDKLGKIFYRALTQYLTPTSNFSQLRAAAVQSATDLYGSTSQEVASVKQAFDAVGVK

(C14)2-dap-Trp-Ile-Pro-Val-Ser-Leu-Arg-Ser-Gly-Glu-Glu-Glu-Glu-PEG2000-OH [RJ111]
cleavage of peptide linker by Thermolysine: efficiently was cleaved
